Measurements taken from paper PMC8418037, “Immunomodulatory effect of standardized C. asiatica extract on a promotion of regulatory T cells in rats” (BMC Complementary Medicine and Therapies, 2021).

What was measured:
[1] = rat, in vivo
Description: Rats, weighing more than 400 g, were put in metabolic cages and fasted overnight with free access to water before experiments. […] The intravenous preparations were freshly dissolved in 20% DMSO/NSS for injection. The oral preparations were freshly prepared by suspending the test compound in 0.5% CMC. To reduce pain and injury during drug administration and blood collection, rats were anesthetized with 5% isoflurane by chamber induction. Serial blood samples (300 μL) were collected at 0, 5, 15, and 30 min, and at 1, 2, 4, 8, and 24 h after dosing. Blood samples were centrifuged at 5000 g for 10 min, and plasma was collected and stored at − 20 °C until analysis. Determination of aspartate transaminase (AST), alanine transaminase (ALT), and creatinine levels were performed at pre-dosing, and at 0 h and 24 h after dosing. Creatinine level was determined by enzymatic Roche Cobas 6000 analyzer. In this enzymatic method creatinine is converted to creatine under the activity of creatininase. Creatine is then acted upon by creatinase to form sarcosine and urea. Sarcosine oxidase converts sarcosine to glycine and hydrogen peroxide, and the hydrogen peroxide reacts with chromophore in the presence of peroxidase to produce a color product that is measured at 546 nm (secondary wavelength = 700 nm). This is an endpoint reaction that agrees well with recognized HPLC methods, and it has the advantage over Jaffe picric acid-based methods that are susceptible to interferences from non-creatinine chromogens. For tissue collection, the rats was euthanized with isoflurane after oral dosing the test compound at 100 mg/kg for 7 days. After the dead was confirmed, spleen and blood were immediately collected, washed with normal saline solution, and send to immunology laboratory for further experiments. The control group received oral gavage of 0.5% CMC as vehicle control. All animal procedures were complied with the ethical principles and guidelines for the use of animals (National Research Council of Thailand, 2015).
All pharmacokinetic parameters were computed by non-compartmental analysis using PK Solution 2.0 software (Summit Research Service, USA). […] The absolute oral bioavailability was calculated as (AUCp.o. ÷ dose p.o.) ÷ (AUCi.v. ÷ dose i.v.). Pharmacokinetic data are presented as mean ± standard deviation. Blood chemical parameters were analyzed by Mann–Whitney U-test to compare the significance of differences between pre-dosing and 24 h post-dosing, with a p-value of less than 0.05. All statistical analyses were calculated using SPSS version 16 (SPSS, Inc., USA). […] The data were analyzed with an unpaired Student’s t-test. A p-value of < 0.05 was considered statistically significant.

[2] = tested on: P-glycoprotein; set-up: method as in PMID 24091240; conditions: affecting the level of absorbed compound; cited from earlier work
[3] = tested on: multidrug-resistant protein 2; set-up: method as in PMID 24091240; conditions: affecting the level of absorbed compound; cited from earlier work

For `C[C@H]1[C@H](C)CC[C@]2(C(=O)O[C@@H]3O[C@H](CO[C@@H]4O[C@H](CO)[C@@H](O[C@@H]5O[C@@H](C)[C@H](O)[C@@H](O)[C@H]5O)[C@H](O)[C@H]4O)[C@@H](O)[C@H](O)[C@H]3O)CC[C@]3(C)C(=CC[C@@H]4[C@@]5(C)C[C@@H](O)[C@H](O)[C@@](C)(CO)[C@@H]5[C@H](O)C[C@]43C)[C@H]12` [Madecassoside, madecassoside], the “ALT, Post-dose (24 h)” value [1] was 24.00 ± 4.85 U/L, the “ALT, Pre-dose (0 h)” value [1] was 23.80 ± 2.59 U/L and the “AST, Post-dose (24 h)” value [1] was 63.20 ± 16.81 U/L. The “AST, Pre-dose (0 h)” value [1] was 46.20 ± 4.87 U/L, the “Creatinine, Post-dose (24 h)” value [1] was 0.67 ± 0.05 mg/dL and the “Creatinine, Pre-dose (0 h)” value [1] was 0.64 ± 0.04 mg/dL. For the same compound, the “Physical appearance, Post-dose (24 h)” value [1] was “Normal”, the “Physical appearance, Pre-dose (0 h)” value [1] was “Normal” and the “Substrate for P-glycoprotein” value [2] was “substrate”. The “Substrate for multidrug-resistant protein 2” value [3] was “substrate”.
